In brackets after ≈: the same amount, converted by molar mass. Non-standard residues stand in square brackets, D forms with d. Residues, ends and D or L forms follow the SMILES beside them. No end group written: not given here. Hyp = O=C(O)[C@@H]1C[C@@H](O)CN1; Tle = CC(C)(C)[C@H](N)C(=O)O; Orn = NCCC[C@H](N)C(=O)O

For one series, the system named is M. luteus 10240. As to the kind of experiment: Growth inhibition assay (microdilution MIC). It is filed as cell-based, Micrococcus luteus. A digest of the protocol: (§1)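 Broth microdilution in 1% TSB with twofold peptide series, final 128 μg/mL to 62.5 ng/mL, against 5×10^6 bacteria/mL stock suspension added 1:1. Incubated 20 h at 37 °C, growth read by absorbance at 595 nm; MIC is the lowest concentration with no growth, determined in triplicate.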
In general terms: In broth dilution the organism is exposed to a series of concentrations in liquid medium.

The conditions of series [1]: mouse, serum.
The nature of series [2]: Stability against bacterial proteases in E. coli lysate. Conditions: E. coli BL21 A1 lysate (bacterial proteases), pH 7.4; E. coli lysate with 0.5 mg/mL protein concentration; read-out: percentage printed under half-life >240 min (peptide remaining). It is filed as in vitro ADME. A digest of the protocol:
(§2)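 Peptide (0.15 μg/mL) incubated at 37° C. in E. coli BL21 A1 sonicated lysate in PBS pH 7.4, Bradford-adjusted to 1.5 or 0.5 mg/mL protein. Samples at 0–360 min TCA-precipitated and neutralized. Intact peptide and fragments quantified by HPLC, identified by MALDI-TOF-MS.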

Series [3] has as its system bacterial proteases (E. coli BL21 A1 lysate). Described as above. The series is classed as in vitro ADME. Conditions: 37° C. A digest of the protocol: as §2
The nature of series [4]: in vitro. The following applies: mouse, 100% mouse serum.
Series [5] in a line: in vitro. The following applies: mouse, 25% aqueous mouse serum, Half-life in 25% mouse serum, 37° C., 75 μg/mL peptide.
Description: For this, the peptides and peptidomimetics were dissolved in water, mouse serum was added and the peptide concentration was adjusted to 75 μg/mL. While shaking continuously, the mixture was incubated at 37° C. After 0, 30, 60, 120, 240 and 360 minutes, in each case an aliquot was taken and mixed with 15% aqueous trichloroacetic acid (Carl Roth GmbH & Co. KG; Karlsruhe, Germany). After incubation on ice for a further 10 minutes, the precipitated serum proteins were centrifuged off (5 min, 13400 rpm, MiniSpin, Eppendorf AG, Hamburg, Germany). The supernatant was removed, neutralized with 1 mol/L aqueous sodium hydroxide solution (Fluke Chemie GmbH, Buchs, Switzerland) and stored at −20° C. until analysis.
The supernatants were analyzed by RP-HPLC with a linear acetonitrile gradient (Biosolve BV, Valkenswaard, The Netherlands) in the presence of 0.1% trifluoroacetic acid (TFA, UV-grade, Fluka Chemie GmbH, Buchs, Switzerland) as ion-pairing reagent. The fractions were co-crystallized with α-cyanohydroxycinnamic acid (Bruker Daltonik GmbH; Bremen, Germany) as matrix (5.3 mg/mL in 50% acetonitrile in 0.1% aqueous TFA) and were analyzed with a tandem mass spectrometer (MALDI-TOF/TOF-MS, 4700 Proteomics Analyzer; Applied Biosystems GmbH, Weiterstadt, Germany) in the positive-ion reflector mode. The proportion of intact peptides and their degradation products or metabolites could thus be identified and quantified at the individual time points. The control used was 25% aqueous mouse serum, which was analyzed in parallel for the same time intervals.
A further series relates to E. coli BL21 A1. The series is classed as cell-based, Escherichia coli. The following applies: 1% TSB, 20 h at 37° C. The gist of the method:
as §1

The subject of the next series is E. coli D31 J. Wilson. Conditions: ¼ Muller-Hinton medium.
The subject of series [6] is S. typhimurium ATCC 700408.
The subject of another series is P. vulgaris ATCC 6896. Conditions: ATCC 6896.
Another series deals with S. saprophyticus 15305. Conditions: 15305.
The test system of the next series is P. mirabilis ATCC 7002. Conditions: ATCC 7002.
The next series in a line: 25% aqueous mouse serum. Conditions: 37° C., up to 360 minutes.

With `CC(C)C[C@H](NC(=O)[C@H](Cc1ccc(O)cc1)NC(=O)[C@@H]1CCCN1C(=O)[C@@H]1CCCN1C(=O)[C@H](CCCCN)NC(=O)[C@H](CC(=O)O)NC(=O)[C@@H](N)C(C)C)C(=O)N1CCC[C@H]1C(=O)N[C@@H](CCCNC(=N)N)C(=O)N1CCC[C@H]1C(=O)N[C@@H](CCCNC(=N)N)C(=O)N1CCC[C@H]1C(=O)N1C[C@H](O)C[C@H]1C(=O)N[C@@H](CCCNC(=N)N)C(=O)N1C[C@H](O)C[C@H]1C(=O)N[C@H](C(=O)N[C@@H](Cc1ccc(O)cc1)C(=O)N[C@@H](CC(N)=O)C(=O)N[C@@H](CCCN)C(N)=O)C(C)(C)C` [compound 110] (H-VDKPPYLPRPRP[Hyp]R[Hyp][Tle]YN[Orn]-NH2), in the series with M. luteus 10240 (10240, 20 h), the “MIC M. luteus 10240” value is 16 µg/mL (≈ 6.89 µM). Moreover, the half-life in [1] is greater than 8 h. Besides, the share remaining at 4 h, 0.15 μg/mL in series [2] was determined as 90%. The “Half-life in E. coli lysate” value in series [3] (E. coli lysate with 0.5 mg/mL protein concentration) is greater than 4 h. In “in vitro [4]”, the share remaining at 8 h, 75 μg/mL was found to be 70%.
For VDKPPYLPRPRPPRRIYNR-NH2 [SEQ ID NO. 18], the “MIC M. luteus 10240” value against M. luteus 10240 (1% TSB, 20 h at 37° C.) worked out at 8 µg/mL. Besides, the half-life at 75 μg/mL in “in vitro [5]” turned out to be 1 h. In addition, the “MIC E. coli BL21 A1” value against E. coli BL21 A1 is 4 µg/mL. Further, the “MIC E. coli D31 J. Wilson” value against E. coli D31 J. Wilson came to 2 µg/mL. The “MIC K. pneumoniae 012-3131” value with K. pneumoniae 012-3131 was determined as 4 µg/mL. For the same compound, the “MIC S. typhimurium ATCC 700408” value in series [6] came to 0.25 µg/mL. Further, the “MIC P. vulgaris ATCC 6896” value in the series with P. vulgaris ATCC 6896 came out at 128 µg/mL. For the same compound, in the series on S. saprophyticus 15305, the “MIC S. saprophyticus 15305” value came to 16 µg/mL. Further, the “MIC P. aeruginosa 39324” value in the series on P. aeruginosa 39324 is 4 µg/mL. Besides, the “MIC P. mirabilis ATCC 7002” value against P. mirabilis ATCC 7002 stood at 128 µg/mL. Besides, the half-life at 0.15 μg/mL in [3] (E. coli, E. coli BL21 A1 lysate, pH 7.4, E. coli lysate with 0.5 mg/mL protein concentration) worked out at 1 h.
For the compound VDKPPYLPRPRPPRRIYNR-OH, the cleaved bond result in the series “25% aqueous mouse serum” is “Asn18-arginine19, first_seen”.

A word on the half-life: it is the time needed for the level to fall by half in the phase considered. By share remaining is commonly meant what is left of the initial amount, in per cent.

The values are drawn from patent US8686113B2 (priority 2009, dated 2014).
